Two molecules from BindingDB's records for doi:10.1016/j.bmcl.2004.12.007 (Cerep, 2005) can be followed below.

In the assay the target is Integrin alpha-L/beta-2 (Homo sapiens, UniProt P05107+P20701). The assay can be described thus: Inhibitory concentration against leukocyte function-associated antigen-1 in HSB-2 human lymphoblast and H1HeLa cell adhesion assay.

Structures are written as SMILES.

One may read the IC50 as the midpoint of a concentration-inhibition curve.

Chain of Integrin alpha-L/beta-2 (P20701 whole entry): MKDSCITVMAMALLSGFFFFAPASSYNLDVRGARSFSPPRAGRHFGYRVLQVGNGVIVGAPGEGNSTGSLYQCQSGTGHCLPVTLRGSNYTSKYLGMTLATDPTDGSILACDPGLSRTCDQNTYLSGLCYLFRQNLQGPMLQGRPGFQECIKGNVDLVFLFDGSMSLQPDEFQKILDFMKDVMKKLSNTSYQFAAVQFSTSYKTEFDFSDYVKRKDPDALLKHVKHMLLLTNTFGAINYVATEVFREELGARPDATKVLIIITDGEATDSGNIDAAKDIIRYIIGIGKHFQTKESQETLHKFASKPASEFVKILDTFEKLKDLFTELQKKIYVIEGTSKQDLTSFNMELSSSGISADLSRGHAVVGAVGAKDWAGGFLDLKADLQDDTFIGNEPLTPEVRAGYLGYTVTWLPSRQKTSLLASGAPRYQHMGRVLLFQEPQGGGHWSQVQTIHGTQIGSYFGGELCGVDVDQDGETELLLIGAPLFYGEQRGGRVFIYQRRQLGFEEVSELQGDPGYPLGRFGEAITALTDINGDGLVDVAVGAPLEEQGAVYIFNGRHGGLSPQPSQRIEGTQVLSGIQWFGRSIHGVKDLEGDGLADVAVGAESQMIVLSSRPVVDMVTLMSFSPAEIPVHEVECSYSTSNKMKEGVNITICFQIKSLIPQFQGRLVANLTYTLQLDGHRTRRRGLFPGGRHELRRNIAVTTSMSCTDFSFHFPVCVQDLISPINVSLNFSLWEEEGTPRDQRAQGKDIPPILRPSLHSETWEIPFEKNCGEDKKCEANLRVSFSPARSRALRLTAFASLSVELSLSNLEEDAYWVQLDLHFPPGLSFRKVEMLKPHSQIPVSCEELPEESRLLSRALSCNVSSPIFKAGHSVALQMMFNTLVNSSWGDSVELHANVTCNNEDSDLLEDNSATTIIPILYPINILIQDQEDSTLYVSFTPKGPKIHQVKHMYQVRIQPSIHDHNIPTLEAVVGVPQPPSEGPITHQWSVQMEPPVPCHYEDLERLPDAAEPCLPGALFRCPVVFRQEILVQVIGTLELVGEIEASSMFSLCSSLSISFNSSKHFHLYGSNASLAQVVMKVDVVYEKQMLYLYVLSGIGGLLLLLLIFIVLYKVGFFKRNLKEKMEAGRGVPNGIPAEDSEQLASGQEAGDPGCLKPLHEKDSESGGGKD
Chain of Integrin alpha-L/beta-2 (P05107 whole entry H354Q): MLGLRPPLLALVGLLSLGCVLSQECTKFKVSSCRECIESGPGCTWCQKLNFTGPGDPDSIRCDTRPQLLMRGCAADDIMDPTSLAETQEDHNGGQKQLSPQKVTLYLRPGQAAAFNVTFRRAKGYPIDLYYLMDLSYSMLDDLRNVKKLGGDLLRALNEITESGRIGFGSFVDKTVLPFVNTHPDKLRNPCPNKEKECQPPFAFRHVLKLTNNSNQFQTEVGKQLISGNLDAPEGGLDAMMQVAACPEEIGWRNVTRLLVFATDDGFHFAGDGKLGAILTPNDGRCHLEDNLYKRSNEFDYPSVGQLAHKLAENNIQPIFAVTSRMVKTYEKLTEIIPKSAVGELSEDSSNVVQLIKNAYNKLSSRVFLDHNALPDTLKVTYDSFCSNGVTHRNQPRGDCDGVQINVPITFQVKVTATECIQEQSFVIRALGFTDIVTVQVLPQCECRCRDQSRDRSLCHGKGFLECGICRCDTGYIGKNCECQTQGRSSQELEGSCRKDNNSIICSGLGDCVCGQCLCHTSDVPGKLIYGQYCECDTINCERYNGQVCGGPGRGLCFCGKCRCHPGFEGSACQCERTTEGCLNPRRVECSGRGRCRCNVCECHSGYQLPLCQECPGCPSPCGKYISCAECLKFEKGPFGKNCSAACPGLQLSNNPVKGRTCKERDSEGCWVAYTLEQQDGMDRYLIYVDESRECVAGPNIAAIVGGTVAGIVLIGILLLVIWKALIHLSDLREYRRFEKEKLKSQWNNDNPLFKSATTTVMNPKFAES

In turn, `N#Cc1ccc(-c2cccc(CN[C@H]3Cc4c(O)n(-c5cc(Cl)cc(Cl)c5)c(=O)n4C3)c2)cc1` [3''-{[(6S,7aS)-2-(3,5-Dichloro-phenyl)-1,3-dioxo-hexahydro-pyrrolo[1,2-c]imidazol-6-ylamino]-methyl}-biphenyl-4-carbonitrile] had an IC50 of 175 nM.
Take `CN(Cc1cccc(-c2ccc(Br)cc2)c1)[C@H]1Cc2c(O)n(-c3cc(Cl)cc(Cl)c3)c(=O)n2C1` [(6S,7aS)-6-[(4''-Bromo-biphenyl-3-ylmethyl)-methyl-amino]-2-(3,5-dichloro-phenyl)-tetrahydro-pyrrolo[1,2-c]imidazole-1,3-dione]: inhibition was half-maximal at 175 nM (IC50).
